Experimental data reported in US20250152743A1, “SYNPOPTOSIS CIRCUITS FOR PROGRAMMABLE CELL DEATH CONTROL” (California Institute of Technology, priority 2023, published 2025).
“Also recorded” adds a separate entry of the source.

Experiments:
Format in all cases: cell-based, human
[1] = system: HEK cells; test: Q-VD-OPh on circuit-induced cell death, flow cytometry; details: Q-VD-OPh 30 μM
Experimental: Then, because naturally occurring cell death can be modulated by small-molecule compounds, the effect of Q-VD-OPh, a caspase inhibitor, on synpoptosis circuits was investigated (FIG. 2C). […] It was also asked whether cells treated with synpoptosis circuits stain positive for TO-PRO-3, a dye that enters apoptotic cells through pannexin channels and pyroptotic cells through permeabilized membranes.
On the day before transfection, HEK cells were seeded at a density of 0.3-0.6 million cells per well on a 12-well plate, 0.1-0.3 million cells per well on a 24-well plate, or 15,000-50,000 cells per well on a 96-well plate. The cells were allowed to attach to the plate overnight, for at least 8 hours. On the day of transfection, we treated the cells with purified DNA plasmids encoding circuit components. In addition to plasmids encoding circuit components, we often included a plasmid encoding a fluorescent co-transfection marker, at roughly 50 ng DNA per well on a 24-well plate. Given the different number of molecular components in each synthetic circuit and their various relative ratios, the total amount of DNA ranged from 50 to 1 μg per well on a 24-well plate, and was scaled by 0.5 or 4 when other 12-well or 96-well plates were used, respectively. […]

[2] = system: HEK293FT cells; test: Co-transfection time course, cell death every 24 h over 4 days; details: P3/P4-zipper reconstituted TEVP
Experimental: Moreover, it was evaluated if some of these mutations affect the maximal caspase activation accessible and the time dependency between caspase activation and cell death by co-transfecting (i) input proteases (P3/P4-zipper reconstituted TEVP as a positive control, split TEVP without reconstitution domain as a negative control, or NeoR to evaluate caspase baseline activity; all with IRES-BFP to enable expression tracking) and (ii) output caspase (“ENLYFQS” (SEQ ID NO: 2)/“ENLYFQQ” (SEQ ID NO: 4)/“ENLFFQQ” (SEQ ID NO: 7)+co-transfected GFP for expression tracking) in HEK293FT cells and measuring cell death every 24 h over the course of 4 days.

[3] = system: HEK293FT cells; test: Polytransfection of input proteases and caspase cleavage-site variants, Annexin staining; details: order, decreasing: ENLFFQQ; ENLFFQY; ENLYFQS+TEVP-cleavable DHFR; ENLFFQS~ENLYFQY~ENLYFQQ; ENLYFQS; both TEVP and TVMVP cleavage site
From the text: The cleavage efficiency of proteases is known to depend on corresponding accessible cleavage sites. Mutations to native protease cleavage sites can slow (i) the recruitment of substrates to the protease active site, (ii) catalytic reaction steps, or (iii) the release of the substrate from the protease. As described herein, this property to modulate cell death executioner activation thresholds. Specifically, we surveyed the following constructs with modified protease cleavage sites across a wide range of possible cell death executioner and input protease expression regimes:
Caspase 3 with ENLYFQS TEVP protease cleavage site (native protease cleavage site is ENLYFQG/S, SEQ ID NOs: 1-2), which serves as a control; Caspase 3 with ENLYFQY (SEQ ID NO: 3) TEVP protease cleavage site; Caspase 3 with ENLYFQQ (SEQ ID NO: 4) TEVP protease cleavage site; Caspase 3 with ENLFFQS (SEQ ID NO: 5) TEVP protease cleavage site; Caspase 3 with ENLFFQY (SEQ ID NO: 6) TEVP protease cleavage site; Caspase 3 with ENLFFQQ (SEQ ID NO: 7) TEVP protease cleavage site; Caspase 3 with both native TEVP and TVMVP cleavage sites separated by linker; Caspase 3 with native TEVP cleavage site fused to C-terminal TEVP-cleavable DHFR degron.
To evaluate how the mutated protease cleavage sites affect Caspase 3 activation, we polytransfected (i) input proteases (P3/P4-zipper reconstituted TEVP as a positive control, split TEVP without reconstitution domain as a negative control, or NeoR to evaluate caspase baseline activity; all with IRES-BFP to enable expression tracking) and (ii) output caspase (caspase+co-transfected GFP for expression tracking) in HEK293FT cells. Annexin staining as described above in Example 1 was used to quantify cell death.

[4] = system: HEK cells; test: Transient DNA transfection of HEK cells, Annexin/Sytox staining, flow cytometry; details: tev, tvmv and hcv sites
Experimental: HEK cells were transiently co-transfected with DNA encoding the circuits, often along with Cherry, a fluorescent protein marker, and cells were analyzed by flow cytometry 16 to 24 hours later. To quantify cell death, the cells were strained with Annexin, Sytox, or both. Annexin stains apoptotic cells by binding to phosphatidylserine exposed on the outer leaflet, and pyroptotic cells by binding to phosphatidylserine in the inner leaflet after membrane permeabilization. In contrast, Sytox, a membrane-impermeable dye, primarily stains pyroptotic cells. Therefore, apoptotic cells are typically Annexin-high and Sytox-low, while pyroptotic cells are Annexin-high and Sytox-high (FIG. 7B). For simplicity, in experiments involving only a single death mode, a single relevant dye was often used. To focus on cells influenced by the circuits, the fraction of Annexin- or Sytox-positive cells was calculated after gating on the fluorescent co-transfection marker (FIG. 7C).
On the day before transfection, HEK cells were seeded at a density of 0.3-0.6 million cells per well on a 12-well plate, 0.1-0.3 million cells per well on a 24-well plate, or 15,000-50,000 cells per well on a 96-well plate. The cells were allowed to attach to the plate overnight, for at least 8 hours. On the day of transfection, we treated the cells with purified DNA plasmids encoding circuit components. […]

CC(C)[C@H](NC(=O)c1ccc2ccccc2n1)C(=O)N[C@@H](CC(=O)O)C(=O)COc1c(F)cccc1F [Q-VD-OPh, Quinoline-Val-Asp-Difluorophenoxymethylketone]
apoptosis induced by the caspase-3 circuit [1]: suppressed circuit-induced apoptosis; also recorded: markedly attenuated apoptosis | pyroptosis mediated by the GSDMA circuit [1]: did not affect pyroptosis

ENLFFQQ: caspase 3 with modified TEVP cleavage site (left off: small tags and cut ends)
maximal caspase activation / maximal fraction of dead cells [2]: reduces the maximum activation to a degree where the complete killing of the cell population is not possible anymore | input/output expression required for caspase activation (activation threshold) [3]: requires the highest input/output expression for activation

ENLFFQY: caspase 3 with modified TEVP cleavage site (left off: small tags and cut ends)
input/output expression required for caspase activation (activation threshold) [3]: in decreasing order

ENLYFQQ: caspase 3 with modified TEVP cleavage site (left off: small tags and cut ends)
maximal caspase activation / maximal fraction of dead cells [2]: comparable maximal fraction of dead cells | input/output expression required for caspase activation (activation threshold) [3]: in decreasing order

ENLYFQY: caspase 3 with modified TEVP cleavage site (left off: small tags and cut ends)
input/output expression required for caspase activation (activation threshold) [3]: in decreasing order

hepatitis C virus protease [HCVP, reference compound]
activation of cognate engineered GSDMs containing the cleavage sites [4]: orthogonally activated their cognate engineered GSDMs
